Legend:
Met = Met (Homo sapiens (Human), UniProt P08581); test: Met autophosphorylation ELISA in PC-3 cells; format: cell-based; settings: cellular, HGF stimulated, read-out: c-Met IC50
How it was run: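 Phospho-Met (panTyr) sandwich ELISA on lysates of PC-3 cells given 100 ng/mL HGF for 10 min after 1 h compound exposure (8-point curve, 0.3% DMSO) following 3 h serum starvation. Normalised to HGF-stimulated DMSO and reference-inhibitor wells; 4-parameter logistic IC50.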

[1] = target: Human Axl (residues H473-A894 with Q764R) (Homo sapiens (Human), UniProt P30530, Q764R); test: Human AXL kinase assay (33P radiometric, KinaseProfiler); format: biochemical; settings: 10 μM ATP
Human Axl (residues H473-A894 with Q764R), sequence (P30530 473-894 Q764R): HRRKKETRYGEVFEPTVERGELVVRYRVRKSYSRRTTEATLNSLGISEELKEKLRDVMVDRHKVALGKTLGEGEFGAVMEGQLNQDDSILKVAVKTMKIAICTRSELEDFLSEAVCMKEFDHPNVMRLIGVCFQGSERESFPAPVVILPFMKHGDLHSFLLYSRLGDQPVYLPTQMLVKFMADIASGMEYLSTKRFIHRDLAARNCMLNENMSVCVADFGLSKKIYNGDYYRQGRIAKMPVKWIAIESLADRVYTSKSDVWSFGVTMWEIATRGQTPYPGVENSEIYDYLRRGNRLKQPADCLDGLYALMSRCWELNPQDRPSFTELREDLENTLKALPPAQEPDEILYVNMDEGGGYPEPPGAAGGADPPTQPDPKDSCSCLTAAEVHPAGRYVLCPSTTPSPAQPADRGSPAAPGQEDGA
Protocol: (§1) Kinase activity and compound inhibition were investigated using the ^33P-Phosphoryl transfer radiometric kinase assay, performed using the KinaseProfiler™ service of Eurofins Pharma Discovery Services UK Limited. Dose-response experiments were performed using nine compound concentrations in a 96-well microtiter plate. For each assay, all compounds were prepared to a 50× final assay concentration (50 μM) in 100% DMSO, then diluted in a half-log series, with the final top concentration at 1 μM. This working stock of the compound was added to the assay well as the first component in the reaction, followed by the remaining components as detailed in the following assay protocols below. The positive control wells (100% kinase activity) contain all components of the reaction including 2% DMSO (control for solvent effects), except the compound of interest. Blank wells contain all components of the reaction, with the reference inhibitor, staurosporine. This reference compound was used to abolish kinase activity and generated the 0% kinase activity base-line. IC50 values were calculated by nonlinear regression analysis using the sigmoidal dose-response (variable slope) curve fit on XLFit version 5.3 (ID Business Solutions).
Human Axl (residues H473-A894 with Q764R, 161 nM) was incubated with 8 mM MOPS pH 7.0, 0.2 mM EDTA, 250 μM KKSRGDYMTMQIG (SEO ID NO. 43) 10 mM magnesium acetate and 10 μM [γ-33P-ATP]. The reaction was initiated by the addition of the Mg/ATP mix. After incubation for 40 minutes at room temperature, the reaction was stopped by the addition of phosphoric acid to a concentration of 0.5%. A reaction aliquot of 10 μL was then spotted onto a P30 filtermat and washed four times for 4 minutes in 0.425% phosphoric acid and once in methanol prior to drying and scintillation counting. Incorporated ^33P was measured using the Wallac Microbeta scintillation counter (Perkin Elmer).

[2] = target: Human Met (residues R974-S1390 with A1209G and V1290L) (Homo sapiens, UniProt P08581); test: Human Met kinase assay (33P radiometric, KinaseProfiler); format: biochemical; settings: 10 μM ATP, read-out: c-Met IC50
Protocol: as §1
Human Met (residues R974-S1390 with A1209G and V1290L, 3.4 nM) was incubated with 8 mM MOPS pH 7.0, 0.2 mM EDTA, 250 μM KKKGQEEEYVFIE (SEO ID NO. 45), 1 mM sodium orthovanadate, 5 mM […], 10 mM magnesium acetate, and 10 μM [γ-33P-ATP]. The reaction was initiated by the addition of the Mg/ATP mix. After incubation for 40 minutes at room temperature, the reaction was stopped by the addition of phosphoric acid to a concentration of 0.5%. A reaction aliquot of […] was then spotted onto a P30 filtermat and washed four times for 4 minutes in 0.425% phosphoric acid and once in methanol prior to drying and scintillation counting. Incorporated 33P was measured using the Wallac Microbeta scintillation counter (Perkin Elmer).

[3] = target: Human Mer (residues R557-E882 with H628Q and R794A) (Homo sapiens (Human), UniProt Q12866); test: Human Mer kinase assay (33P radiometric, KinaseProfiler); format: biochemical; settings: 10 μM ATP
Human Mer (residues R557-E882 with H628Q and R794A), sequence (Q12866 557-882, stated change not applied): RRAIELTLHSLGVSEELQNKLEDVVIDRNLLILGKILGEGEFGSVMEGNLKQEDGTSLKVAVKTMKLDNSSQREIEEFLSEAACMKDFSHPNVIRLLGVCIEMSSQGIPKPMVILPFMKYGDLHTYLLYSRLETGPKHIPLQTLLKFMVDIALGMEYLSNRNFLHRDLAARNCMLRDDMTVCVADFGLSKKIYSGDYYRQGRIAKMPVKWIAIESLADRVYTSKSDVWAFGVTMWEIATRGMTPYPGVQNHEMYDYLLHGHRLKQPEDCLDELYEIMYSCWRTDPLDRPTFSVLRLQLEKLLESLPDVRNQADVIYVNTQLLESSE
Protocol: as §1
Human Mer (residues R557-E882 with H628Q and R794A, 0.7 nM) was incubated with 8 mM MOPS pH 7.0, 0.2 mM EDTA, 30 mM NaCl, 250 μM GGMEDIYFEFMGGKKK (SEO ID NO. 44). 10 mM magnesium acetate, and 10 μM [γ-^33P-ATP]. The reaction was initiated by the addition of the Mg/ATP mix. After incubation for 40 minutes at room temperature, the reaction was stopped by the addition of phosphoric acid to a concentration of 0.5%. A reaction aliquot of 10 μL was then spotted onto a P30 filtermat and washed four times for 4 minutes in 0.425% phosphoric acid and once in methanol prior to drying and scintillation counting. Incorporated ^33P was measured using the Wallac Microbeta scintillation counter (Perkin Elmer).

Met, sequence (P08581 25-1390): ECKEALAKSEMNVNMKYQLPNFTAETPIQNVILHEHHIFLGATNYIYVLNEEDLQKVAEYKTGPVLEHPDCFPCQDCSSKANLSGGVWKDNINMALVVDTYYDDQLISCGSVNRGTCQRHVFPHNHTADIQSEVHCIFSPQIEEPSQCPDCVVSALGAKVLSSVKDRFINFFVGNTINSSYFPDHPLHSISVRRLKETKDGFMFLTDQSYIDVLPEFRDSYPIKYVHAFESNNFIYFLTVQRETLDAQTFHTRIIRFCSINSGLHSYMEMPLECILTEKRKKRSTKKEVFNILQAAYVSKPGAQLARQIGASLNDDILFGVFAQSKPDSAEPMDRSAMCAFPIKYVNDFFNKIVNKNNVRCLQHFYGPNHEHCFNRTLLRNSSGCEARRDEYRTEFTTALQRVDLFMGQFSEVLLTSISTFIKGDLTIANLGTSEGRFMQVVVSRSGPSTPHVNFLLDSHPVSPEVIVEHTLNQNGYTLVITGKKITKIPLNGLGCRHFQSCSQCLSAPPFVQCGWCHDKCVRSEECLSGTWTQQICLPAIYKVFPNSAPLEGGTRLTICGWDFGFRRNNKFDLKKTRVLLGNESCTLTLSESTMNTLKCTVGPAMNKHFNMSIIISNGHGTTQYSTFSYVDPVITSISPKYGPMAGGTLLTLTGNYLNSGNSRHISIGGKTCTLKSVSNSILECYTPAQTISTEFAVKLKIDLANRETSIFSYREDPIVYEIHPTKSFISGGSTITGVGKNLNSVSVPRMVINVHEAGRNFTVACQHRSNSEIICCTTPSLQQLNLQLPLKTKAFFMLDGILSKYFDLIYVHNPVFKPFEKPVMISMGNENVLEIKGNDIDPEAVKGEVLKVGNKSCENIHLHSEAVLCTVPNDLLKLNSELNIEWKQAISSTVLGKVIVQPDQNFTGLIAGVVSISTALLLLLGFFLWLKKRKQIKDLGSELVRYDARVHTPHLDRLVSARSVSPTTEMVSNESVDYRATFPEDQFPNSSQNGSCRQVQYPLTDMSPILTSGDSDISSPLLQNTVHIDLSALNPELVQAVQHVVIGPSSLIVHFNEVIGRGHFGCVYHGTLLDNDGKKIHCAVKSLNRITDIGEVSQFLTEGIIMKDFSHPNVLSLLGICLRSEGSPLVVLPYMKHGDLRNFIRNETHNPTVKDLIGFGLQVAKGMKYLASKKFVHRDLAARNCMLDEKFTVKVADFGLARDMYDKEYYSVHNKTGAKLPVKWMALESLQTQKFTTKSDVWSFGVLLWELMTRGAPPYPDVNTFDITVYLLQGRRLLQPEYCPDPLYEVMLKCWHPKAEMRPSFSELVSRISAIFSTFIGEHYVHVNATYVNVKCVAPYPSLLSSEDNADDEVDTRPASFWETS

Compound | IC50 (Met) | IC50 [1] | IC50 [2] | IC50 [3]
COC(=O)c1cc2c(Oc3ccc(NC(=O)C4(C(=O)Nc5ccc(F)cc5)CC4)cc3F)ccnc2cc1OC [Compound 129, methyl 4-[2-fluoro-4-[[1-[(4-fluorophenyl)carbamoyl]cyclopropanecarbonyl]amino]phenoxy]-7-methoxyquinoline-6-carboxylate] | 10 to 100 nM | ≤ 10 nM | ≤ 10 nM | ≤ 10 nM
COc1cc2nccc(Oc3ccc(NC(=O)C4(C(=O)Nc5ccc(F)cc5)CC4)cc3F)c2cc1C(N)=O [Compound 133, 1-N′-[4-(6-carbamoyl-7-methoxyquinolin-4-yl)oxy-3-fluorophenyl]-1-N-(4-fluorophenyl)cyclopropane-1,1-dicarboxamide] | ≤ 10 nM | ≤ 10 nM | ≤ 10 nM | ≤ 10 nM
NC(=O)c1ccc2nccc(Oc3ccc(NC(=O)C4(C(=O)Nc5ccc(F)cc5)CC4)cc3)c2c1 [Compound 58, 1-N-[4-(6-carbamoylquinolin-4-yl)oxyphenyl]-1-N′-(4-fluorophenyl)cyclopropane-1,1-dicarboxamide] | 100 to 300 nM | 10 to 100 nM | 10 to 100 nM | 10 to 100 nM
COc1cc2nccc(Oc3ccc(NC(=O)C4(C(=O)Nc5ccc(F)cc5)CC4)cc3)c2cc1C1(O)COC1 [Compound 196, 1-N′-(4-fluorophenyl)-1-N-[4-[6-(3-hydroxyoxetan-3-yl)-7-methoxyquinolin-4-yl]oxyphenyl]cyclopropane-1,1-dicarboxamide] | 10 to 100 nM | ≤ 10 nM | ≤ 10 nM | ≤ 10 nM
NC(=O)c1ccc2c(Oc3ccc(NC(=O)C4(C(=O)Nc5ccc(F)cc5)CC4)cc3)ccnc2c1 [Compound 164, 1-N-[4-(7-carbamoylquinolin-4-yl)oxyphenyl]-1-N′-(4-fluorophenyl)cyclopropane-1,1-dicarboxamide] | ≤ 10 nM | ≤ 10 nM | ≤ 10 nM | ≤ 10 nM
COc1cc2nccc(Oc3ccc(NC(=O)C4(C(=O)Nc5ccc(F)cc5)CC4)cc3)c2cc1C(=O)NC1CN(C)C1 [Compound 14, 1-N′-(4-fluorophenyl)-1-N-[4-[7-methoxy-6-[(1-methylazetidin-3-yl)carbamoyl]quinolin-4-yl]oxyphenyl]cyclopropane-1,1-dicarboxamide] | ≤ 10 nM | 10 to 100 nM | ≤ 10 nM | ≤ 10 nM
COc1cc2nccc(Oc3ccc(NC(=O)C4(C(=O)Nc5ccc(F)cc5)CC4)cc3)c2cc1C1(O)CN(C(=O)OC(C)(C)C)C1 [Compound 195, tert-butyl 3-[4-[4-[[1-[(4-fluorophenyl)carbamoyl]cyclopropanecarbonyl]amino]phenoxy]-7-methoxyquinolin-6-yl]-3-hydroxyazetidine-1-carboxylate] | 10 to 100 nM | 10 to 100 nM | 10 to 100 nM | ≤ 10 nM
COc1cc2nccc(Oc3ccc(NC(=O)C4(C(=O)Nc5ccc(F)cc5)CC4)cc3)c2cc1N1CC(O)C1 [Compound 199, 1-N′-(4-fluorophenyl)-1-N-[4-[6-(3-hydroxyazetidin-1-yl)-7-methoxyquinolin-4-yl]oxyphenyl]cyclopropane-1,1-dicarboxamide] | ≤ 10 nM | ≤ 10 nM | ≤ 10 nM | ≤ 10 nM
COc1cc2nccc(Oc3ccc(NC(=O)C4(C(=O)Nc5ccc(F)cc5)CC4)cc3)c2cc1C(=O)NC1COC1 [Compound 13, 1-N′-(4-fluorophenyl)-1-N-[4-[7-methoxy-6-(oxetan-3-ylcarbamoyl)quinolin-4-yl]oxyphenyl]cyclopropane-1,1-dicarboxamide] | 10 to 100 nM | 10 to 100 nM | ≤ 10 nM | ≤ 10 nM
CNC(=O)c1cc2c(Oc3ccc(NC(=O)C4(C(=O)Nc5ccc(F)cc5)CC4)cc3)ccnc2cc1OC [Compound 8, 1-N′-(4-fluorophenyl)-1-N-[4-[7-methoxy-6-(methylcarbamoyl)quinolin-4-yl]oxyphenyl]cyclopropane-1,1-dicarboxamide] | 10 to 100 nM | – | ≤ 10 nM | ≤ 10 nM
CCNC(=O)c1cc2c(Oc3ccc(NC(=O)C4(C(=O)Nc5ccc(F)cc5)CC4)cc3)ccnc2cc1OC [Compound 9, 1-N-[4-[6-(ethylcarbamoyl)-7-methoxyquinolin-4-yl]oxyphenyl]-1-N′-(4-fluorophenyl)cyclopropane-1,1-dicarboxamide] | 10 to 100 nM | – | – | –
CONC(=O)c1cc2c(Oc3ccc(NC(=O)C4(C(=O)Nc5ccc(F)cc5)CC4)cc3)ccnc2cc1OC [Compound 17, 1-N′-(4-fluorophenyl)-1-N-[4-[7-methoxy-6-(methoxycarbamoyl)quinolin-4-yl]oxyphenyl]cyclopropane-1,1-dicarboxamide] | 10 to 100 nM | – | – | –

More lines, now with the values ahead:

IC50 (Met) | IC50 [1] | IC50 [2] | IC50 [3] | Compound
10 to 100 nM | 10 to 100 nM | ≤ 10 nM | ≤ 10 nM | COc1cc2nccc(Oc3ccc(NC(=O)C4(C(=O)Nc5ccc(F)cc5)CC4)cc3)c2cc1-c1cn[nH]c1 [Compound 186, 1-N′-(4-fluorophenyl)-1-N-[4-[7-methoxy-6-(1H-pyrazol-4-yl)quinolin-4-yl]oxyphenyl]cyclopropane-1,1-dicarboxamide]
10 to 100 nM | ≤ 10 nM | ≤ 10 nM | ≤ 10 nM | COc1cc2nccc(Oc3ccc(NC(=O)C4(C(=O)Nc5ccc(F)cc5)CC4)cc3)c2cc1-c1nnco1 [Compound 220, 1-N′-(4-Fluorophenyl)-1-N-[4-[7-methoxy-6-(1,3,4-oxadiazol-2-yl)quinolin-4-yl]oxyphenyl]cyclopropane-1,1-dicarboxamide]
10 to 100 nM | 10 to 100 nM | ≤ 10 nM | ≤ 10 nM | COc1cc2nccc(Oc3ccc(NC(=O)C4(C(=O)Nc5ccc(F)cc5)CC4)cc3)c2cc1-c1ccn[nH]1 [Compound 185, 1-N′-(4-fluorophenyl)-1-N-[4-[7-methoxy-6-(1H-pyrazol-5-yl)quinolin-4-yl]oxyphenyl]cyclopropane-1,1-dicarboxamide]
10 to 100 nM | – | – | – | COc1cc2nccc(Oc3ccc(NC(=O)C4(C(=O)Nc5ccc(F)cc5)CC4)cc3)c2cc1-c1ncc[nH]1 [Compound 191, 1-N′-(4-Fluorophenyl)-1-N-[4-[6-(1H-imidazol-2-yl)-7-methoxyquinolin-4-yl]oxyphenyl]cyclopropane-1,1-dicarboxamide]
10 to 100 nM | 10 to 100 nM | ≤ 10 nM | ≤ 10 nM | COc1cc2nccc(Oc3ccc(NC(=O)C4(C(=O)Nc5ccc(F)cc5)CC4)cc3)c2cc1-c1cnn(C)c1 [Compound 182, 1-N′-(4-fluorophenyl)-1-N-[4-[7-methoxy-6-(1-methylpyrazol-4-yl)quinolin-4-yl]oxyphenyl]cyclopropane-1,1-dicarboxamide]
≤ 10 nM | – | ≤ 10 nM | ≤ 10 nM | COc1cc2nccc(Oc3ccc(NC(=O)C4(C(=O)Nc5ccc(F)cc5)CC4)cc3)c2cc1C(N)=O [Compound 7, 1-N-[4-(6-carbamoyl-7-methoxyquinolin-4-yl)oxyphenyl]-1-N′-(4-fluorophenyl)cyclopropane-1,1-dicarboxamide]
≤ 10 nM | – | ≤ 10 nM | ≤ 10 nM | COc1cc2nccc(Oc3ccc(NC(=O)C4(C(=O)Nc5ccc(F)cc5)CC4)cc3)c2cc1-c1ncco1 [Compound 45, 1-N′-(4-fluorophenyl)-1-N-[4-[7-methoxy-6-(1,3-oxazol-2-yl)quinolin-4-yl]oxyphenyl]cyclopropane-1,1-dicarboxamide]
